Test results reported in US9206186B2, “2-phenoxy- and 2-phenylsulfonamide derivatives with CCR3 antagonistic activity for the treatment of inflammatory or immunological disorders” (AXIKIN PHARMACEUTICALS, INC., priority 2003, dated 2015).
Structures can show the parent of a compound that is named as a salt.

What follows are molecules tested against T1, Human CCR3 (Homo sapiens, UniProt P51677) (assay: Calcium mobilization assay (Ca2+), eotaxin-stimulated human CCR3-transformed K562 cells). Conditions: compounds of about 40 to 90% purity, read-out: Activity grade IC50.
T1 construct: The cloned CCR3 cDNA was constructed with pcDNA3 vector and transfected into a K562 cell line; expressed in transfected cells
T1 sequence (P51677 1-355): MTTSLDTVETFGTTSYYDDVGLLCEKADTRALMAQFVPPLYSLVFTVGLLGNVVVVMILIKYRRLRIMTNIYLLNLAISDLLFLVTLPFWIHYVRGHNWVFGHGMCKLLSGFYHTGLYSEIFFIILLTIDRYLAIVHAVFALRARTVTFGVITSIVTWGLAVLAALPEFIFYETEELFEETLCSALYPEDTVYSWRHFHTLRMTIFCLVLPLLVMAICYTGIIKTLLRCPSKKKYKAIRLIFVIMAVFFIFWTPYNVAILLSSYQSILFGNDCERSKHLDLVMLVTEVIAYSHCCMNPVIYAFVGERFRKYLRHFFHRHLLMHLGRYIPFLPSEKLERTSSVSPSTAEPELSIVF
Format: cell-based
Experimental: • Human CCR3-transformed K562 cells were used. The cloned CCR3 cDNA was constructed with pcDNA3 vector and transfected into a K562 cell line. The human CCR3-transformed K562 cells were maintained in RPMI-1640 (Cat.#22400-089, Life Technologies) supplemented with 10% FCS (Cat.#A-1115-L, Hyclone), 55 μM 2-mercaptoethanol (Cat.#21985-023, Life Technologies), 1 mM sodium pyruvate (Cat.#11360-070, Life Technologies), 100 units/ml of penicillin G and 100 μg/ml of streptomycin (Cat.#15140-122, Life Technologies), and 0.4 mg/ml of Geneticin (Cat.#10131-035, Life Technologies) (hereinafter called “culture medium”). Before the receptor binding assay, cells were pretreated with 5 mM sodium butyrate (Cat.#193-01522, Wako)-containing the culture medium (2×10^5 cells/ml) for 20-24 hours to increase the expression of CCR3. (2) Receptor Binding Assay • Butyrate-pretreated cells, suspended in binding buffer (25 mM HEPES pH 7.6, 1 mM CaCl2, 5 mM MgCl2, 0.5% BSA, 0.1% NaN3) at a cell density of 2×10^6 cells/ml, were added into 60 μl/well in the 96-well round bottom polypropylene plate (Cat.#3365, Costar). Compounds, diluted with the binding buffer (4-times higher concentration of the final concentration), were added into 30 μl/well in the polypropylene plate. [^125I]-labeled human eotaxin (Cat.#IM290, Amersham Pharmacia Biotech), diluted with the binding buffer at the concentration of 0.4 nM (final concentration; 0.1 nM), was added into 30 μl/well in the polypropylene plate. Total 120 μl/well of binding reaction mixture (60 μl/well of cell suspension, 30 μl/well of compound solution, and 30 μl/well of [^125I]-labeled eotaxin) were incubated in the polypropylene plate for 1 hour at room temperature after the incubation, 100 μl/well of the reaction mixture was transferred to a filtration plate (Cat.#MAFB-N0B, Millipore), and washed with the washing buffer (25 mM HEPES pH 7.6, 1 mM CaCl2, 5 mM MgCl2, 0.5% BSA, 0.1% NaN3, 0.5 M NaCl) twice. The 96-well filtration plate was pretreated with 100 μl/well of 0.5% polyethylenimine (Cat.#P-3143, Sigma) for 2-4 hours at room temperature and washed with the washing buffer twice before use. The non-specific binding was determined by parallel incubation in the presence of 500 nM of non-labeled eotaxin (Cat.#23209, Genzyme Techne). The radioactivities remained on the filter were measured by liquid scintillation counter (TopCount™, Packard) after an addition of 45 μl/well of scintillant (Microscint20, Cat.#6013621, Packard). The inhibition percent at each concentration of compound was calculated, and IC50 values were determined from the inhibition curve. [Determination of IC50 Values of Compounds in Calcium Mobilization Assay] (1) Cell • Human CCR3-transformed K562 cells were used. The human CCR3-transformed K562 cells were maintained in RPMI-1640 supplemented with 10% FCS, 55 μM 2-mercaptoethanol (Cat.#21985-023, Life Technologies), 1 mM sodium pyruvate, 100 units/ml of penicillin G and 100 μg/ml of streptomycin, and 0.4 mg/ml of Geneticin. Before the calcium mobilization assay, cells were pretreated with 5 mM sodium butyrate-containing the culture medium (2×10^5 cells/ml) for 20-24 hours to increase the expression of CCR3. (2) Calcium Mobilization Assay • Butyrate-pretreated cells were loaded with Fluo-3AM (Cat.#F-1242, Molecular Probes) in loading buffer (Hanks' solution Cat.#05906 Nissui, 20 mM HEPES pH 7.6, 0.1% BSA, 1 mM probenecid Cat.#P-8761 Sigma, 1 μM Fluo-3AM, 0.01% pluronic F-127 Cat.#P-6866 Molecular Probes) at a cell density of 1×10^7 cells/ml. Then, cells were washed with calcium assay buffer (Hanks' solution Cat.#05906 Nissui, 20 mM HEPES pH 7.6, 0.1% BSA, 1 mM Probenecid Cat.#P-8761 Sigma). The cell suspension (3.3×10^6 cells/ml) was added into 60 μl/well in the 96-well clear bottom black plate (Cat.#3904, Costar). Compounds, diluted (5-times concentration of the final concentration) with the calcium assay buffer, were added into 20 μl/well in the plate 10 minutes before assay. […]

IC50 | SMILES
< 0.1 µM | N#Cc1ccc(Oc2cc(Cl)cc(Cl)c2)c(S(=O)(=O)N[C@H]2CN3CCC2CC3)c1 [Example 1-1, N—(R)-(+)-(1-aza-bicyclo[2.2.2]oct-3-yl)-5-cyano-2-(3,5-dichloro-phenoxy)-benzenesulfonamide]
< 0.1 µM | CN(C)CCN(CCN1C(=O)CCC1=O)S(=O)(=O)c1cc(C#N)ccc1Oc1cc(Cl)cc(Cl)c1 [Example 1-2, 5-cyano-2-(3,5-dichloro-phenoxy)-N-(2-dimethylamino-ethyl)-N-[2-(2,5-dioxo-pyrrolidin-1-yl)-ethyl]-benzenesulfonamide]
< 0.1 µM | N#Cc1ccc(Oc2cc(Cl)cc(Cl)c2)c(S(=O)(=O)N2CCN[C@@H](Cc3c[nH]c4ccccc34)C2)c1 [Example 1-3, 4-(3,5-dichloro-phenoxy)-3-[(3S)-(1H-indol-3-ylmethyl)-piperazine-1-sulfonyl]-benzonitrile]
< 0.1 µM | N#Cc1ccc(Oc2cc(Cl)cc(Cl)c2)c(S(=O)(=O)N2CCNCC2Cn2cncn2)c1 (stereo not drawn) [Example 1-4, 4-(3,5-dichlorophenoxy)-3-{[2-(1H-1,2,4-triazol-1-ylmethyl)-1-piperazinyl]sulfonyl}benzonitrile hydrochloride]
> 0.5 µM | N#Cc1ccc(Oc2cc(Cl)cc(Cl)c2)c(S(=O)(=O)N2CCCCC2)c1 [Example 1-5]
< 0.1 µM | N#Cc1ccc(Oc2cc(Cl)cc(Cl)c2)c(S(=O)(=O)N2CC3CCN(Cc4ccccc4)C3C2)c1 (stereo not drawn) [Example 1-6]
< 0.1 µM | CS(=O)(=O)NCC1CN(S(=O)(=O)c2cc(C#N)ccc2Oc2cc(Cl)cc(Cl)c2)CCN1 (stereo not drawn) [Example 1-7]
< 0.1 µM | CC(=O)NCC1CN(S(=O)(=O)c2cc(C#N)ccc2Oc2cc(Cl)cc(Cl)c2)CCN1 (stereo not drawn) [Example 1-8]
< 0.1 µM | CS(=O)(=O)NCC1CNCCN1S(=O)(=O)c1cc(C#N)ccc1Oc1cc(Cl)cc(Cl)c1 (stereo not drawn) [Example 1-9]
< 0.1 µM | CC(=O)NCC1CNCCN1S(=O)(=O)c1cc(C#N)ccc1Oc1cc(Cl)cc(Cl)c1 (stereo not drawn) [Example 1-10]
< 0.1 µM | N#Cc1ccc(Oc2cc(Cl)cc(Cl)c2)c(S(=O)(=O)N2CCC(N3C[C@H](O)[C@@H](O)C3)CC2)c1 [Example 1-11]
0.1 to 0.5 µM | COC(=O)C1CN(S(=O)(=O)c2cc(C#N)ccc2Oc2cc(Cl)cc(Cl)c2)CCCN1 (stereo not drawn) [Example 1-12]
< 0.1 µM | COC(=O)[C@@H]1C[C@H](N2CCCC2)CN1S(=O)(=O)c1cc(C#N)ccc1Oc1cc(Cl)cc(Cl)c1 [Example 1-13]
< 0.1 µM | N#Cc1ccc(Oc2cc(Cl)cc(Cl)c2)c(S(=O)(=O)N2CC[C@H](NCCO)C2)c1 [Example 1-16]
< 0.1 µM | COC(=O)C1CNCCCN1S(=O)(=O)c1cc(C#N)ccc1Oc1cc(Cl)cc(Cl)c1 (stereo not drawn) [Example 1-22]
< 0.1 µM | N#Cc1ccc(Oc2cc(Cl)cc(Cl)c2)c(S(=O)(=O)N2CCNC[C@@H]2Cc2c[nH]c3ccccc23)c1 [Example 1-26]
< 0.1 µM | N#Cc1ccc(Oc2cc(Cl)cc(Cl)c2)c(S(=O)(=O)N2CCNCC2CN2C(=O)CCC2=O)c1 (stereo not drawn) [Example 1-27]

IC50 | SMILES
< 0.1 µM | CS(=O)(=O)NCC1CN(S(=O)(=O)c2cc(C#N)ccc2Oc2cc(Cl)cc(Cl)c2)CCCN1 (stereo not drawn) [Example 1-28]
< 0.1 µM | CS(=O)(=O)NCC1CNCCCN1S(=O)(=O)c1cc(C#N)ccc1Oc1cc(Cl)cc(Cl)c1.Cl (stereo not drawn) [Example 1-29]
< 0.1 µM | CC(=O)c1ccc(Oc2cc(Cl)cc(Cl)c2)c(S(=O)(=O)N2CCNCC2)c1 [Example 1-31]
< 0.1 µM | N#Cc1ccc(Oc2cc(Cl)cc(Cl)c2)c(S(=O)(=O)N[C@@H]2CN3CCC2CC3)c1 [Example 1-32]
0.1 to 0.5 µM | N#Cc1ccc(Oc2cc(Cl)cc(Cl)c2)c(S(=O)(=O)N2CCC(N3CCC[C@H]3C(=O)O)CC2)c1 [Example 1-33]
< 0.1 µM | CC(C)(O)[C@@H]1CCCN1C1CCN(S(=O)(=O)c2cc(C#N)ccc2Oc2cc(Cl)cc(Cl)c2)CC1 [Example 1-34]
< 0.1 µM | N#Cc1ccc(Oc2cc(Cl)cc(Cl)c2)c(S(=O)(=O)N2CCCCC2CN2CCC(O)C2)c1 (stereo not drawn) [Example 1-35]
< 0.1 µM | N#Cc1ccc(Oc2cc(Cl)cc(Cl)c2)c(S(=O)(=O)N2CCNC(Cn3ncnn3)C2)c1 (stereo not drawn) [Example 1-36]
< 0.1 µM | Cl.N#Cc1ccc(Oc2cc(Cl)cc(Cl)c2)c(S(=O)(=O)N2CCNC(Cn3cncn3)C2)c1 (stereo not drawn) [Example 1-37]
< 0.1 µM | CCN1CCCN(S(=O)(=O)c2cc(C#N)ccc2Oc2cc(Cl)cc(Cl)c2)C(C(=O)OC)C1 (stereo not drawn) [Example 1-39]
< 0.1 µM | N#Cc1ccc(Oc2cc(Cl)cc(Cl)c2)c(S(=O)(=O)N(CCN2CCCC2)C2CCCC2)c1 [Example 1-42]
< 0.1 µM | N#Cc1ccc(Oc2cc(Cl)cc(Cl)c2)c(S(=O)(=O)N2CCNC(CN3C(=O)CCC3=O)C2)c1 (stereo not drawn) [Example 1-43]
< 0.1 µM | N#Cc1ccc(Oc2cc(Cl)cc(Cl)c2)c(S(=O)(=O)N2CCC(N3CCCC3)C(CN3C(=O)CCC3=O)C2)c1 (stereo not drawn) [Example 1-44]
< 0.1 µM | N#Cc1ccc(Oc2cc(Cl)cc(Cl)c2)c(S(=O)(=O)N2CCC(N3CCC[C@H]3CO)CC2)c1 [Example 1-45]
< 0.1 µM | N#Cc1ccc(Oc2cc(Cl)cc(Cl)c2)c(S(=O)(=O)N2CCC[C@H]2CN2CCC[C@H]2CO)c1 [Example 1-46]
> 0.5 µM | N#Cc1ccc(Oc2cc(Cl)cc(Cl)c2)c(S(=O)(=O)C2CCNCC2)c1 [Example 2-1, 4-(3,5-Dichloro-phenoxy)-3-(piperidine-4-sulfonyl)-benzonitrile]
